Data on two molecules can be found in patent US20200163938A1, “PHARMACEUTICAL COMPOSITION COMPRISING IRON CHELATOR EXHIBITING ANTITUMOR ACTIVITY, ANTIBACTERIAL ACTIVITY AND/OR ANTIVIRUS ACTIVITY, AND HAVING REDUCED SIDE EFFECTS” (priority 2017, published 2020).

The subject of one data set is HCT116 cells. The data set can be described thus: Apoptosis induction, TUNEL staining. Format: cell-based, human. The following applies: 6.5 µg/mL, 48 hours, FIG. 11B. As for the experimental part:
(§1) Furthermore, the apoptosis-inducing effects of the chelating agents of test groups 6 and 10 on tumors were confirmed. First, 100 μg/mL of the chelating agent of test group 6 or 50 μg/mL of the chelating agent of test group 10 was added to HSC-2 cells in a culture solution. After 48 hours of reaction, TUNEL Assay was carried out. Specifically, apoptosis induction was evaluated by the TUNEL staining method using a MK500 in situ Apoptosis Detection Kit (Takara Bio Inc.).
Similarly, the apoptosis-inducing effects of the chelating agent of test group 6 or 10 on HCT116 cells were confirmed. 10 μg/mL of the chelating agent of test group 6 was added and 6.5 µg/mL of the chelating agent of test group 10 was added to the cells. After 48 hours of reaction, TUNEL staining was carried out similarly to the above.

Data set [1] relates to subcutaneously-transplanted HCT116 cells. Format: in vivo, nude mice (BALB/c nu/nu). As for the experimental part: Next, the antitumor effects of the chelating agents of test groups 6 and 10 on HCT116-cell subcutaneous transplantation model mice, into which HCT116 cells had been subcutaneously transplanted, were confirmed. Mice prepared herein were nude mice (BALB/c nu/nu, 6 weeks old: Clea Japan Inc.). HCT116 cells were adjusted at 3×10^6/mouse, and then mixed with Matrigel (BD Biosciences) at 1:1. The thus obtained mixture was administered to mice, thereby preparing subcutaneous tumors. The dosage was 200 mg/kg/day (5 times/week administration). […] Tissue sections of HCT116 cells subcutaneously transplanted into the test group 10 administration group were prepared, and then hematoxylin-eosin (HE) staining, and TUNEL staining were performed by the above-mentioned method.

For data set [2], the system named is A549 cells. The data set can be described thus: Western blot of apoptosis-related factors. Format: cell-based, human. The following applies: A549 cell lysate; FIG. 12. The source says:
(§2) The cell lysate of each type of cells treated with the chelating agents of test groups 6 and 10 was Western-blotted, and then an increase or a decrease in apoptosis-related factors in treated cells was confirmed using the indicated antibodies. […] Concentration-dependent apoptosis induction was also biochemically confirmed.

Data set [3] has as its system HSC-2 cells. The data set can be described thus: Western blot of apoptosis-related factors. It counts as cell-based, human. The following applies: HSC-2 cell lysate; FIG. 12.
Source text: as §2

The next data set deals with MCF-7 cells. The data set can be described thus: Western blot of apoptosis-related factors. It counts as cell-based, human. The following applies: MCF-7 cell lysate; FIG. 12.
Source text: as §2

The test system of a further data set is P. gingivalis Pg W83. The data set can be described thus: Antibacterial activity, turbidity and ATP assay. Particulars: anaerobic culture 37° C., 18 hours, OD595 nm; FIG. 8. It counts as cell-based, Porphyromonas gingivalis. As for the experimental part: A bacterial strain of one of periodontopathic bacteria, gram-negative bacillus, P. gingivalis, used herein was Pg W83. With the use of a liquid medium prepared by adding the chelating agent of each test group to a modified GAM bouillon medium, anaerobic culture (Anaeropack.anaerobic) was performed at 37° C. for 18 hours. Turbidity was found from optical density (OD595 nm). Results were as depicted in FIG. 8.

In data set [4] the test system is human oral squamous cell carcinoma HSC-2. The data set can be described thus: Antitumor effects, cell viability (XTT method). Format: cell-based. The following applies: FIG. 10. As for the experimental part: (§3) The antitumor effects of the chelating agents of test groups 1 to 10 on each of human lung cancer cell line A549, human liver cancer cell line PLC, and human colon adenocarcinoma cell line HCT116 were confirmed. A549 cells or PLC cells were seeded at 3000 cells/well, and HCT116 cells were seeded at 6000 cells/well. After 24 hours, the fetal bovine serum (FBS) concentration was changed from 10% to 1%, each compound of the test groups 1 to 10 was introduced into medium. Cell viability was confirmed after 48 hours by the Trypan blue method, or, cell viability was confirmed after 48 hours by performing medium exchange and then after 24 hours by performing the XTT method. Deferoxamine mesylate (Desferal (Trademark)) was used as a positive control. Results are as depicted in FIGS. 1A, 1B, 2 and 3.
(§4) Moreover, similarly to the above experiment on antitumor effects, the antitumor effects of the chelating agent of test group 6 or 10 on each of human breast cancer cell line MCF-7 and human oral squamous cell carcinoma HSC-2 were confirmed.

The test system of data set [5] is human breast cancer cell line MCF-7. The data set can be described thus: Antitumor effects, cell viability (XTT method). The following applies: FIG. 9. Format: cell-based. As for the experimental part: as §3, §4
Data set [6] deals with HSC-2 cells. The data set can be described thus: Apoptosis induction, TUNEL staining. Format: cell-based, human. The following applies: 50 μg/mL, 48 hours, FIG. 11A. As for the experimental part: as §1
Data set [7] deals with human influenza virus PR8 [A/PUERTORICO/8/34 (H1N1)]. The data set can be described thus: Suppression of viral infection of MDCK cells. It counts as cell-based. Particulars: 48 hours. As for the experimental part:
MDCK cells (canine renal tubule epithelial cells) were infected with a human influenza virus, and then an effect of suppressing the viral infection of MDCK cells was confirmed. Specifically, PR8 [A/PUERTORICO/8/34 (H1N1)] was adjusted at TCID50=2.81×10^6/mL as the influenza virus, the viral liquid and an equivalent amount of the chelating agent of test group 10 (concentration: 100 μg/mL, 250 μg/mL, 500 μg/mL, or 1000 μg/mL) were mixed and then left to stand at room temperature for 30 minutes. The above-prepared viral liquid was added to MDCK cells. After 48 hours, cells were observed, living cells (specifically, non-infected cells) remaining on the bottom of the culture dish were observed under a microscope. Results were as depicted in FIG. 16A.

For data set [8], the system named is A549 cells. The data set can be described thus: Apoptosis induction, TUNEL staining. Particulars: 50 μg/mL, 48 hours, FIG. 11C. Format: cell-based, human. As for the experimental part:
as §1
Further, the apoptosis-inducing effects of the chelating agent of test group 6 or 10 on A549 cells were confirmed. 100 μg/mL of the chelating agent of test group 6 was added and 50 μg/mL of the chelating agent of test group 10 was added to the cells. After 48 hours of reaction, TUNEL staining was carried out similarly to the above.

Data set [9] is classed as in vivo. Details: NEFA: unit not given here. The following applies: for Body weight: rats. As for the experimental part:
To a negative control group (saline administration; n=6), the same amount of saline was administered. On day 14 after administration, determining life or death, measurement of body weight, physical items (respiration, body temperature, behavior, etc.) were observed. Moreover, blood samples were taken from each group, and the right kidneys and the livers were removed. Results were as depicted in FIG. 5A to 5C and Tables 4 to 9.

For data set [10] the following is noted: mouse, in vivo, 300 mg/kg.
Method: To each of 6-week-old Jcl: ICR mice divided into a test group 6 administration group (n=3), a test group 9 administration group (n=3), and a test group 10 administration group (n=3), the chelating agent of each test group was administered at a dose of 300 mg/kg body weight via tail vein. To a positive control group (administration; n=4), deferoxamine mesylate was administered at a dose of 300 mg/kg body weight via tail vein. On day 7 after administration, determining life or death, and physical items (respiration, body temperature, behavior, etc.) were observed.
Where [11] appears, read: rat blood, oral 200 mg/kg, day 14.
The mark [12] stands for this setting: rat blood, oral 1000 mg/kg, day 14.
Where [13] appears, read: rat blood, oral 1000 mg/kg, day 14, 1000 mg/kg.

Several values for one entry are separate records, joined by “and”; a condition that tells them apart may be missing. Equal values may be shown once. Entries after “also recorded” stand apart in the source; their conditions may differ. Where a name gives a salt, the structure may show the parent alone. Read-outs that look alike come from different tables or passages of the source.

In the case of `Cl.O=C(O)[C@H](Cc1c[nH]cn1)NCc1ccc(O)c(O)c1O` [Test group 10], the “apoptosis-inducing effects (TUNEL staining)” value (“apoptosis-inducing effects” for short) in the data set with HCT116 cells is “green-stained cells indicating apoptosis were confirmed”. In addition, in data set [1] (HCT116 subcutaneous tumor tissue, 200 mg/kg/day, FIG. 13B), the “in vivo apoptosis induction in tumor tissue sections (TUNEL staining)” value is “FITC-derived green-stained cell images indicating apoptosis induction were confirmed”. In addition, the body weight change entry in data set [1] (mouse, in vivo, 200 mg/kg/day) was “no change in body weight was observed”. The “in vivo antitumor effects” value in data set [1] (subcutaneously-transplanted HCT116 cells, nude mice, 200 mg/kg/day (5 times/week), FIGS. 13A, 14) is on record as “exhibited antitumor effects”. Also, the “PARP cleaved fragments and caspase-3-cleaved fragments (Western blot)” value in the data set on A549 cells [2] is “PARP cleaved fragments and caspase-3-cleaved fragments were confirmed”. The “PARP cleaved fragments and caspase-3-cleaved fragments (Western blot)” value in the data set with HSC-2 cells [3] is “PARP cleaved fragments and caspase-3-cleaved fragments were confirmed”. In the data set with MCF-7 cells, the “PARP cleaved fragments and caspase-3-cleaved fragments (Western blot)” value is “PARP cleaved fragments and caspase-3-cleaved fragments were confirmed”. The “antimicrobial effects on P. gingivalis (turbidity)” value in the data set with P. gingivalis Pg W83 is listed as “exhibited antimicrobial effects”. Further, the “antitumor effects on HSC-2 (cell viability)” value in data set [4] is “exhibit antitumor effects”. Moreover, the “antitumor effects on MCF-7 (cell viability)” value in data set [5] was “exhibit antitumor effects”. Moreover, in the data set with HSC-2 cells [6], the “apoptosis-inducing effects” value is “green-stained cells indicating apoptosis were confirmed”. Besides, the “effect of suppressing viral infection” value in data set [7] (500 μg/mL) is “observed to have the effect of suppressing viral infection”. Moreover, the “apoptosis-inducing effects” value in the data set with A549 cells [8] is “green-stained cells (FITC positive cells) indicating apoptosis were confirmed”. For the same molecule, in data set [9] (setting [11]), the ALP worked out at 603 IU/L, the ALT worked out at 33 IU/L, the AST was 61 IU/L and the BUN worked out at 22.5 mg/dL. In data set [9] (setting [11]), the CRE is 0.37 mg/dL, the Ca stood at 11.2 mg/dL, the GLU was found to be 278 mg/dL and the K turned out to be 6.1 mEQ/L. Also, in data set [9] (setting [11]), the LD came out at 53 IU/L, the NEFA is 111, the Na amounted to 146 mEQ/L and the T-Bil is 0.06 mg/dL. The same molecule yielded a TP in [9] (setting [11]) of 5.5 g/dL. In data set [9] (setting [12]), this molecule yielded an ALT of 25 IU/L and a CRE of 0.36 mg/dL. For the same molecule, in data set [9] (setting [13]), the ALP was 592 IU/L and 618 IU/L; the AST is 56 IU/L and 90 IU/L; the BUN is 24.6 mg/dL and 22.8 mg/dL; the Ca is 10.6 mg/dL and 10.5 mg/dL. Further, in [9] (setting [13]), the GLU was 259 mg/dL and 187 mg/dL; the K is 4.8 mEQ/L and 4.9 mEQ/L; the Na was 142 mEQ/L and 143 mEQ/L; the TP is 5.4 g/dL and 5.7 g/dL. This molecule also returned a Body weight in [9] (oral 200 mg/kg) of 170.83 g. Besides, the Body weight in [9] (oral 1000 mg/kg, 1000 mg/kg) is 170.73 g and 185.29 g.
On to `CC(=O)N(O)CCCCCNC(=O)CCC(=O)N(O)CCCCCNC(=O)CCC(=O)N(O)CCCCCN` [deferoxamine mesylate, Deferoxamine mesylate], for which the life or death entry in data set [10] was “died immediately after administration”. Besides, the “effect of suppressing viral infection” value in [7] (500 μg/mL or 1000 μg/mL, listed as Desferal) is reported as “the effect of suppressing viral infection was not observed; also recorded: unable to inhibit viral infection”.
